Experimental data as given in patent publication US8507436B2, “Peptides derived from plasminogen activator inhibitor-1 and uses thereof” (D-Pharm Ltd., priority 2007, dated 2013).
Several values for one entry are separate records, joined by “and”; a condition that tells them apart may be missing. Equal values may be shown once.

Legend:
tPA [1] = target: T1, tPA (Homo sapiens, UniProt P00750); test: tPA-related mortality and intracranial hemorrhage after transient mechanical obstruction of the MCA in rats; type: in vivo
T1 construct: purchased Genentech, Inc., South San Francisco, Calif
T1 sequence (P00750 36-562): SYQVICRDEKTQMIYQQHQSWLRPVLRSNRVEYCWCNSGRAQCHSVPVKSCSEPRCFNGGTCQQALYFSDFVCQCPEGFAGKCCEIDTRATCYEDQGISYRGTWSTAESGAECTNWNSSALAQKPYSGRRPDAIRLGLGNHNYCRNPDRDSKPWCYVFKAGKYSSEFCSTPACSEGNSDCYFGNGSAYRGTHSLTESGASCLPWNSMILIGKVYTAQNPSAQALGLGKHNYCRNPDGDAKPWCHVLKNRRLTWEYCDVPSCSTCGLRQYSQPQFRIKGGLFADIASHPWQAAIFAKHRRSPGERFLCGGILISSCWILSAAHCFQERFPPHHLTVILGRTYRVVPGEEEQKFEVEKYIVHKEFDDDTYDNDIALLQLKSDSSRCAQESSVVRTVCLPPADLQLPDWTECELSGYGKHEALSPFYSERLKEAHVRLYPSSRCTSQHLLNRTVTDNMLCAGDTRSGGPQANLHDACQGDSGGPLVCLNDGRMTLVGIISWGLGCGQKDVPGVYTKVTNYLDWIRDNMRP
Procedure: MCA occlusion. All studies were conducted in accordance with the NIH Guide for the Care and Use of Laboratory Animals. Sprague-Dawley rats (mean weight 250 g) were fed on regular chow and allowed free access to drinking water. Rats were anesthetized with an i.p. injection of ketamine (75 mg per ml, Apharmo) and xylazine (5 mg per ml, Bayer). Body temperature was maintained at 37±0.5° C. by means of a heating lamp. Focal cerebral ischemia was induced by occluding the left MCA with an intraluminal filament (Ding-Zhou, L. et al. 2002 Eur J. Pharmacol. 457, 137-146). Briefly, the left common and external carotid arteries were isolated through a midline neck incision and ligated with a 4-0 silk suture (Ethicon). An arteriotomy was fashioned in the common carotid artery just proximal to the carotid bifurcation. A 4-0 nylon monofilament (Ethicon) was introduced through this incision into the internal carotid artery and advanced distal to the carotid bifurcation to occlude the origin of the MCA; the thread was carefully withdrawn 2 hours later. tPA alone at the indicated concentrations, tPA together with the PAI-1 derived peptides 206 (EEIIMD of SEQ ID NO: 11) or peptide 218 N (Ac-RMAPEEIIMDRPFLFVVR-amide of SEQ ID NO: 1) or peptide 218 O (Ac-RMAPEEIIMDRPFLYVVR-amide of SEQ ID NO: 2) were injected i.v. 2 hours after the thread had been withdrawn. Rats were returned to their cages after recovering from anesthesia. Twenty-four hours later. rats were euthanized with an overdose of Nembutal and the infarct size was measured.

tPA [2] = target: T1, tPA; type: in vivo; details: rats
Procedure: MCA occlusion. All studies were conducted in accordance with the NIH Guide for the Care and Use of Laboratory Animals. Sprague-Dawley rats (mean weight 250 g) were fed on regular chow and allowed free access to drinking water. Rats were anesthetized with an i.p. injection of ketamine (75 mg per ml, Apharmo) and xylazine (5 mg per ml, Bayer). Body temperature was maintained at 37±0.5° C. by means of a heating lamp. Focal cerebral ischemia was induced by occluding the left MCA with an intraluminal filament (Ding-Zhou, L. et al. 2002 Eur J. Pharmacol. 457, 137-146). Briefly, the left common and external carotid arteries were isolated through a midline neck incision and ligated with a 4-0 silk suture (Ethicon). An arteriotomy was fashioned in the common carotid artery just proximal to the carotid bifurcation. […] Twenty-four hours later. rats were euthanized with an overdose of Nembutal and the infarct size was measured.
Measuring infarct volume The brain was removed and sectioned coronally into 2-mm segments. […] The sections were photographed and the infarct area measured using the NIH computer image analysis program. […] Differences were analyzed by ANOVA followed by the t-test and the level of significance was corrected using a post-hoc analysis with the Bonferroni test. […]
The effect of the PAI-1 derived peptides on infarct size after transient mechanical obstruction of the MCA in rats treated with tPA was examined. tPA injected intravenously two hours after establishing reperfusion increased the infarct size from 16±4.6 to 48.333±8.7 mm3 (FIG. 2). […] The infarct size measured in the presence of peptide 206 was 20.333±4.8 while in the presence of peptide 218 N its size was only 13.3±3.6 mm3 (P<0.05; FIG. 2).
The effect of the PAI-1 derived peptides on infarct size was determined in rats that underwent MCA and reperfusion and four hours later treated with tPA alone or together with PAI-1 derived peptides. tPA injected intravenously four hours after establishing reperfusion increased the infarct size from 68±7 to 77±9 mm3 (FIG. 7).

tPA [3] = target: T1, tPA; test: tPA-induced opening of the BBB in mice (Evans blue); type: in vivo; details: C57/B16 mice, 10 mg/kg tPA with 10 μM peptide i.v.
From the text: The brain content of Evans blue was quantified by absorbance at 620 nm.

tPA [4] = target: T2, tPA (Sus scrofa, UniProt Q8SQ23); test: Brain water content after fluid percussion brain injury (FPI) in piglets; type: in vivo, pigs; details: peptide 1 mg/kg i.v. 30 min prior to FPI, no exogenous tPA, normal 78.87±0.75%, vehicle after injury 84.1±0.45%
T2 construct: purchased Genentech, Inc., South San Francisco, Calif
T2 sequence (Q8SQ23 36-562): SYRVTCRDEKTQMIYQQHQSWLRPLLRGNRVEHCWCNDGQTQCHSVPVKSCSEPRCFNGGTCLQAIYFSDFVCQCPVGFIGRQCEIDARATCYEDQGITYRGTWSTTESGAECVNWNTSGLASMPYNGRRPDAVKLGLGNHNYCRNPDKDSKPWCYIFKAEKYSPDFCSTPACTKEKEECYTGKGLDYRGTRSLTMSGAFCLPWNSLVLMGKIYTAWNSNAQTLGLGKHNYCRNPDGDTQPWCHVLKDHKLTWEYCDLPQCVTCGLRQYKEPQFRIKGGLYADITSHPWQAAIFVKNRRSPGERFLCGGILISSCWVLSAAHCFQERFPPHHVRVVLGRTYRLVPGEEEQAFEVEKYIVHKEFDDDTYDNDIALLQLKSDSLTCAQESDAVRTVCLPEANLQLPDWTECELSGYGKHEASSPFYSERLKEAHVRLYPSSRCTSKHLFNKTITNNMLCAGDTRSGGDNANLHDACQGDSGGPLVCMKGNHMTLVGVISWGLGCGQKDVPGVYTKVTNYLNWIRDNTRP
Procedure: (§1) Fluid Percussion Brain Injury (FPI) method. The method was performed as described by Armstead et al., Nat. Neurosci.
(§2) Brain water content Brain water content (BWC) was determined by measuring the wet and dry weights of the brain tissue and by using the formula BWC=wet weight-dry weight/wet weight×100. Data were analyzed by analysis of variants with a Student-Newman-Keuls post-hoc test. A P<0.05 was considered significant.
(§3) Brain water content (BWC) was determined by measuring the wet and dry weights of the brain tissue and by using the formula BWC=wet weight-dry weight/wet weight×100. Data were analyzed by analysis of variants with a Fischer's post-hoc test. A P<0.05 was considered significant.

tPA [5] = test: as above; type: in vivo, pigs; details: for Brain water content after FPI in the presence of tPA: tPA 2 mg/kg i.v. with peptide 1 mg/kg i.v.
Procedure: as §1, §2, §3

tPA [6] = target: T3, tPA (Rattus norvegicus, UniProt P19637); test: Infarct volume after embolic stroke in rats; type: in vivo; details: peptide 1 mg per kg in saline, absence of tPA
T3 construct: purchased Genentech, Inc., South San Francisco, Calif
T3 sequence (P19637 33-559): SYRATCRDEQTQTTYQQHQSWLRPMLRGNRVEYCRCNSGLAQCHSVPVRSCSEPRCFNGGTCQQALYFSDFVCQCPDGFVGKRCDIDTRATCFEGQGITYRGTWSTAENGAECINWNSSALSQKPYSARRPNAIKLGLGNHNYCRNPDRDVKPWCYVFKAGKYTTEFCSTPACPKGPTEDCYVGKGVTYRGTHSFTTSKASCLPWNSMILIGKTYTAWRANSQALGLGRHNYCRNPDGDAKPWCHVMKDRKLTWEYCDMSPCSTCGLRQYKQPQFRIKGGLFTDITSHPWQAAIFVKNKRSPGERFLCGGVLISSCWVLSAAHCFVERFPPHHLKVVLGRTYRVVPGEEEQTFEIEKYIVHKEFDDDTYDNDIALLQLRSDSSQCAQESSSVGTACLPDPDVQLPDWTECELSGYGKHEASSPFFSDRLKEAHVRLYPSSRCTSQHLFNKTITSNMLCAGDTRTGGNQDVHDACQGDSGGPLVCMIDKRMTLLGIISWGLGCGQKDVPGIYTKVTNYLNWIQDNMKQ
Procedure: (§4) Embolic stroke Embolic stroke was induced according to the previously reported microembolism model (Bdeir, K. et al. 2000 Blood 96, 1820-1826) as adapted to stroke (Atochin, D. N. et al. 2004. Stroke 35, 2177-2182). Microemboli were prepared, dissected, and homogenized as described (Bdeir K et al. 2000, supra). The suspension of microemboli used to induce stroke contained 1.4×10^6 microparticles, with an average diameter of 3 μm.
(§5) Experiments were performed in rats as described previously (Ding-Zhou, L. et al. 2002, supra) with some modifications. Briefly, Sprague-Dawley rats (mean weight 250 g) were anesthetized by i.p. injection of ketamine (75 mg per mL) and xylazine (5 mg per mL). The carotid artery was exposed and an arteriotomy was performed. A polyethylene catheter with an inner diameter of […] was used to inject the solution of microemboli (1.4×10^6 particles) directly into the exposed internal carotid artery. The catheter was flushed with 0.25 ml normal saline and carefully withdrawn. After washing the surgical site with saline containing 1 mM hexacapron, the incision was closed.
(§6) After induction of embolic stroke, rats were divided into 4 treatment groups (n=7 each): tPA (6 mg per kg) or tPA (6 mg per kg) with either peptide 206, peptide 218 O, or peptide 218 N (1 mg per kg) in normal saline were injected i.v., 2 hours after the catheter was withdrawn. Control groups received a vehicle consisting of normal saline alone or peptides 206 or 218 (1 mg per kg) in saline. 50% of the dose was given as a bolus injection and the remainder was infused over 60 min. The rats were returned to their cages after recovering from anesthesia. Twenty-four hours after the procedure, the rats were euthanized with an overdose of Nembutal and the infarct size was measured.
(§7) Measuring infarct volume The brain was removed and sectioned coronally into 2-mm segments. Brain slices were immersed in 2% 2,3,5-triphenyltetrazolium chloride (TTC) in saline, incubated for 30 minutes at 37° C. and placed in 4% formalin/PBS overnight. The area of infarction remains unstained, appearing white, making it clearly distinguishable from stained viable tissue. The sections were photographed and the infarct area measured using the NIH computer image analysis program. Infarct volume was defined as the sum of the unstained areas of all sections, multiplied by their thickness and expressed in cubic millimeters. Data are represented as mean±SE. Differences were analyzed by ANOVA followed by the t-test and the level of significance was corrected using a post-hoc analysis with the Bonferroni test. Statistical significance was set at P<0.05.
(§8) The effect of PAI-1 derived peptides on tPA treated rats after embolic stroke induced by injection of microthrombi directly into the MCA was also examined. […]

tPA [7] = test: Infarct volume after embolic stroke in rats; type: in vivo
Procedure: as §4, §5, §6, §7, §8

Molecule	Absolute mortality, tPA co-injected with peptide (FIG. 6A) (tPA [1]; mechanical MCA obstruction, tPA alone 28.6%)	Reduction of the tPA associated increase in mortality (FIG. 6B) (tPA [1]; mechanical MCA obstruction, tPA with peptide)	tPA-induced mortality with peptide, in per cent from Table 1 (tPA [1]; tPA plus peptide, tPA alone ~29%)	Infarct size, tPA with peptide four hours after reperfusion (FIG. 7) (tPA [2]; MCA and reperfusion, tPA co-injected with peptide four hours later)	Prevention of tPA-induced loss of BBB integrity (tPA [3])	Brain water content after FPI (tPA [4])	Brain water content after FPI in the presence of tPA (tPA [5])	Post-stroke infarct size, peptide alone (tPA [6])	Infarct volume, tPA with peptide (tPA [7]; tPA 6 mg per kg with peptide 1 mg per kg i.v. two hours after embolization)	Mortality, tPA alone, in per cent from Table 1 (tPA [1]; 6 out of 21)	Mortality (dead rats/rats in group) (tPA [1]; Table 1, control 1/12)	Mortality rate, tPA alone (FIG. 6) (tPA [1]; mechanical MCA obstruction, tPA i.v. two hours after reperfusion, saline control 7.7%)	Infarct size, tPA alone four hours after reperfusion (tPA [2]; MCA and reperfusion, tPA i.v. four hours later, control 68±7)	Infarct size, tPA alone (tPA [2]; mechanical MCA obstruction, tPA i.v. two hours after reperfusion, saline control 16±4.6)	Brain water content after FPI, tPA alone (tPA [5]; tPA 2 mg/kg i.v. without peptide)	Decrease of infarct volume by tPA alone (tPA [7]; tPA 6 mg per kg i.v. two hours after embolization)
CC[C@H](C)[C@H](NC(=O)[C@H](CCC(=O)O)NC(=O)[C@H](CCC(=O)O)NC(=O)[C@@H]1CCCN1C(=O)[C@H](C)NC(=O)[C@H](CCSC)NC(=O)[C@H](CCCNC(=N)N)NC(C)=O)C(=O)N[C@H](C(=O)N[C@@H](CCSC)C(=O)N[C@@H](CC(=O)O)C(=O)N[C@@H](CCCNC(=N)N)C(=O)N1CCC[C@H]1C(=O)N[C@@H](Cc1ccccc1)C(=O)N[C@@H](CC(C)C)C(=O)N[C@@H](Cc1ccccc1)C(=O)N[C@H](C(=O)N[C@H](C(=O)N[C@@H](CCCNC(=N)N)C(N)=O)C(C)C)C(C)C)[C@@H](C)CC [peptide 218 N, Ac-RMAPEEIIMDRPFLFVVR-amide]	15.4%	63%	9%	significantly stronger than that of 218 O and 206	about 90%	79.343±0.25%	79.643±0.51%	significantly reduced post-stroke infarct size	smaller infarct volumes than those treated with tPA and peptide 206 or tPA and peptide 218 O	–	–	–	–	–	–	–
EEIIMD [peptide 206, 6-mer peptide corresponding to amino acid residues 373-378 of human PAI-1]	–	–	–	–	no effect	81.379±0.3%	82.351±0.55%	little effect on infarct size	–	–	–	–	–	–	–	–
tPA: Recombinant tPA purchased from Genentech; thrombolytic agent, tissue-type plasminogen activator	–	–	–	–	–	–	–	–	–	~29%	6 out of 21 and 6/21	28.6%	77±9 mm3	48.333±8.7 mm3	87.12±0.6%	approximately 48%
